Assays:
lysyl oxidase = biological target: T1, lysyl oxidase (Bos taurus, UniProt P33072); assay: Test for lysyl oxidase-inhibitory effect (homovanillic acid/horseradish peroxidase fluorescence); format: biochemical; conditions: enzyme from bovine aortas, 15 minutes preincubation, pH 8.2; read-out: IC50 (inhibition of lysyl oxidase)
T1 construct: The enzyme was isolated from bovine aortas; from tissue; host or cells: bovine aorta
T1 sequence (P33072 170-418): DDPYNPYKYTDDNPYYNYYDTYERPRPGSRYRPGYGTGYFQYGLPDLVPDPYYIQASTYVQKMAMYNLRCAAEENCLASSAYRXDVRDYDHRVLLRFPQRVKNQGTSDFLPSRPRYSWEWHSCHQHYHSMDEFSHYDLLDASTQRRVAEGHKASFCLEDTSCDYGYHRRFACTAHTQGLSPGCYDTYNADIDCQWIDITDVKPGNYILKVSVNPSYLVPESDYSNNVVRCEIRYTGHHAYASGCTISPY
Description: 1. Test for Lysyl Oxidase-inhibitory Effect:
The enzyme was isolated from bovine aortas in a modification of a method of Kagan et al. [Biochem. J. 177, 203-214 (1979)] by extraction with phosphate buffer containing urea, followed by precipitation and chromatography on DEAE-Sephadex.
The test solution (total volume 200 μl) is composed of 1.5 mM homovanillinic acid, 5 mM 1,5-diaminopentane, 1 unit of horseradish peroxidase and 1.5 M urea in 50 mM sodium borate buffer of pH 8.2. The enzyme was preincubated with the compound to be tested for 15 minutes; the reaction was started by adding diaminopentane and homovanillin/horseradish peroxidase. The fluorescence of the homovanillin dimer which formed was measured with excitation at 315 nm and emission at 425 nm. This test arrangement is a modification of the method of Trackman et al. [Anal. Biochem. 113, 336-341 (1981)].
The IC50 as a measure of the inhibition of lysyl oxidase is found by testing various concentrations of substance and using the concentration-effect plots.

[1] = system: serum-induced hepatic fibrosis in rats; assay: Model of serum-induced hepatic fibrosis, liver collagen content (4-hydroxyproline); format: in vivo, rat; conditions: serum-treated female Sprague-Dawley rats, 3 mg/kg p.o. o.d.; vehicle 2.070, intact 0.577; P <0.01
Description: c) Model of Serum-induced Hepatic Fibrosis: A septal fibrosis can be induced in rats also by repeated injection of heterologous serum. For this purpose, 0.5 ml of sterile-filtered porcine serum is administered i.p. to each animal twice a week [Bhunchet and Wake, Hepatology 16, 1452-73 (1992)]. The experiments were carried out with female Sprague-Dawley rats (200-220 g). After 6-8 weeks, the septal fibrosis is histologically manifest and can also be detected through an increase in the liver hydroxyproline content. b) Collagen Content: The total collagen content was estimated by means of the tissue 4-hydroxyproline concentration. The method of Prockop and Udenfried [D. J. Prockop and S. Udenfried, A specific method for the analysis of hydroxyproline in tissues and urine, Anal. Biochem. 1, 228-239 (1960)] in modified form was used: liver samples with a wet weight of 60-90 mg were dried and then hydrolyzed in 6 N hydrochloric acid at 100° C. for 17 hours. The hydrolyzate was dried by evaporation and reconstituted in 5 ml of deionized water. […] After incubation at 35° C. for 3 hours, the absorption was measured at 573 nm. […]

[2] = system: hepatic fibrosis following bile duct ligature in rats; assay: Model of bile duct ligature, histological morphometry (picrosirius red); format: in vivo, rat; conditions: 15 mg/kg p.o. b.i.d.
Description: b) Model of Bile Duct Ligature:
The experiments were carried out with female Sprague-Dawley rats (200-220 g). In order to generate chronic fibrosis, the bile duct (common hepatic duct) was doubly ligated in a surgical procedure. Ethibloc® occlusion emulsion (Ethicon, Norderstedt, Germany), a mixture of prolamine and ethanol, was instilled retrogradely into the biliary system [J. Kountouras, B. Billing, P. Scheuer, Prolonged bile obstruction: A new experimental model for cirrhosis in the rat, Br. J. Exp. Pathol. 65, 305-311 (1984); G. Boigk, L. Stroedter, H. Herbst, J. Waldschmidt, E. O. Riecken, D. Schuppan, Silymarin retards collagen accumulation in early and advanced biliary fibrosis secondary to complete bile duct obliteration in rats, Hepatology 26, 643-649 (1997)]. […] The animals were sacrificed and investigated three weeks after the surgical procedure.
a) Histological Assessments/Morphometry:
Standardized transverse cylinders of liver tissue (approx. 10×2 mm) were cut out of the right anterior lobe of each rat liver. Frozen sections were stained with 0.1% picrosirius red solution to detect scar collagen associated with hepatic fibrosis. The contrast was increased by counterstaining with fast green. The extent of hepatic fibrosis was found as a percentage of the part stainable with picrosirius red in each section. […]

[3] = system: hepatic fibrosis resulting from chronic administration of carbon tetrachloride in rats; assay: Model of chronic carbon tetrachloride intoxication, liver collagen content (4-hydroxyproline); format: in vivo, rat; conditions: CCl4-treated female Sprague-Dawley rats, 30 mg/kg p.o. o.d., 6 weeks; vehicle 1.921, intact 0.504; P =0.059 vs. vehicle
Source text: a) Model of Chronic Carbon Tetrachloride Intoxication:
Chronic carbon tetrachloride (CCl4) treatment is a standard method for generating hepatic fibrosis of nonviral origin and subsequent cirrhosis. It is generally accepted as a model of hepatic fibrosis and cirrhosis in humans [E. McLean, A. McLean, P. Sutton, Instant Fibrosis: An improved method for producing cirrhosis of the liver in rats by simultaneous administration of carbon tetrachloride and phenobarbitone, Br. J. Exp. Pathol. 50, 502-506 (1969)].
Female Sprague-Dawley rats (200-220 g) were employed. In order to achieve maximum microsomal metabolization of the CCl4, the animals received isoniazid in the drinking water (1 g/l) for one week before starting the administration of carbon tetrachloride. CCl4 was administered orally each fifth day in a dose of 0.2 ml/100 g of bodyweight in a 1:1 mixture with mineral oil. […] Necropsy was performed 6 weeks after starting the treatment.
The total collagen content was estimated by means of the tissue 4-hydroxyproline concentration. […] After incubation at 35° C. for 3 hours, the absorption was measured at 573 nm. […]

IC50 (lysyl oxidase) [nM] | melting point [°C] | SMILES | further results
 | 186 | O=c1c(Oc2ccc(-c3ccc(F)cc3)cc2)c(-n2ccnc2)cnn1-c1ccc([N+](=O)[O-])cn1 [compound 71] | 
 | 151 | CCOC(=O)c1ccc(-n2ncc(-n3ccnc3)c(Oc3ccc(-c4ccccc4)cc3)c2=O)cc1 [compound 72] | 
 | 148 | O=c1c(Oc2ccc(-c3ccccc3)cc2)c(-n2ccnc2)cnn1-c1cccc(F)c1 [compound 73] | 
 | 119 | O=c1c(Oc2ccc(-c3ccccc3)cc2)c(-n2ccnc2)cnn1-c1ccc(F)cc1 [compound 74] | 
 | 220 | Cc1ccc(-n2ncc(-n3ccnc3)c(Oc3ccc(-c4ccc(C#N)cc4)cc3)c2=O)cc1 [compound 76] | 
 | 177 | Cc1ccc(-n2ncc(-n3ccnc3)c(Oc3ccc(-c4ccccc4)cc3)c2=O)cc1 [compound 77] | 
 | 188 | O=c1c(Oc2ccc(-n3cccc3)cc2)c(-n2ccnc2)cnn1-c1ccc(Cl)cc1 [compound 78] | 
 | 276 | N#Cc1ccc(-c2ccc(Oc3c(-n4ccnc4)cnn(-c4ccc(Cl)cc4)c3=O)cc2)cc1 [compound 80] | 
 | 180 | CS(=O)(=O)Nc1ccc(-c2ccc(Oc3c(-n4ccnc4)cnn(-c4ccc(Cl)cc4)c3=O)cc2)cc1 [compound 83] | 

More lines, now with the values behind:

SMILES | IC50 (lysyl oxidase) [nM] | melting point [°C] | further results
CCOc1c(N2CCOCC2)cnn(C)c1=O [4-ethoxy-2-methyl-5-morpholino-3(2H)-pyridazinone, reference compound] | > 4000 |  | 
CCN1CCN(c2cnn(-c3ccc(C)cc3)c(=O)c2Oc2ccc(-c3ccc(O)cc3)cc2)CC1 [Ex. 5, 5-(4-Ethyl-1-piperazinyl)-4-[(4′-hydroxy-1,1′-biphenyl-4-yl)oxy]-2-(4-methylphenyl)-3(2H)-pyridazinone] | 17 |  | 
CS(=O)(=O)N1CCN(c2cnn(-c3ccc(Cl)cc3)c(=O)c2Oc2ccc(-c3ccc(F)c(CN)c3)cc2)CC1 [Ex. 8, 4-{[3′-(Aminomethyl)-4′-fluoro-1,1′-biphenyl-4-yl]oxy}-2-(4-chlorophenyl)-5-[4-(methylsulfonyl)-1-piperazinyl]-3(2H)-pyridazinone] | 7 |  | 
O=c1c(Oc2ccc(-c3ccccc3)cc2)c(N2CCNCC2)cnn1-c1ccc(Cl)cc1 [Ex. 12, 4-(1,1′-Biphenyl-4-yloxy)-2-(4-chlorophenyl)-5-(1-piperazinyl)-3(2H)-pyridazinone] | 3 |  | 
O=c1c(Oc2ccc(-c3ccc(F)cc3)cc2)c(N2CCC(CO)CC2)cnn1-c1ccc(Cl)cc1 [Ex. 25, 2-(4-Chlorophenyl)-4-[(4′-fluoro-1,1′-biphenyl-4-yl)oxy]-5-[4-(hydroxymethyl)-1-piperidinyl]-3(2H)-pyridazinone] | 5 |  | 
CN1CCN(c2cnn(-c3ccc(Cl)cc3)c(=O)c2Oc2ccc(-c3ccccc3)cc2)CC1.Cl [Ex. 34] | 9 | 162 | 4-Hydroxyproline content: average in mg/g dry weight [1]: 1.293 mg/g dry weight
O=c1c(Oc2ccc(-c3ccc(O)cc3)cc2)c(-n2ccnc2)cnn1-c1ccc(Cl)cc1 [Ex. 81] | 7 |  | 
O=c1c(Oc2ccc(-c3ccccc3)cc2)c(-n2ccnc2)cnn1-c1ccc(Cl)cc1 [Ex. 82] | 11 |  | Proportionate area stainable with picrosirius red: average in % ([2]; bile duct ligated female Sprague-Dawley rats, three weeks, vehicle 7.4, sham 0.21, P <0.05 vs. vehicle): 4.98%; inhibition in fibrosis ([2]; bile duct ligated rats, worked out from Table 2): approx. 34%; 4-Hydroxyproline content: average in mg/g dry weight [3]: 1.260 mg/g dry weight
CC(=O)NCc1cc(-c2ccc(Oc3c(N4CCNCC4)cnn(-c4ccc(Cl)cc4)c3=O)cc2)ccc1F [Ex. 176] | 10 |  | 
N#CCCN [β-Aminopropionitrile (BAPN), reference compound] | 10000 |  | 
